# Patent US20120329117A1, “CONTROL OF CONTAMINANT MICROORGANISMS IN FERMENTATION PROCESSES WITH SYNERGISTIC FORMULATIONS CONTAINING STABILIZED CHLORINE DIOXIDE AND PEROXIDE COMPOUND” (E.I. DU PONT DE NEMOURS AND COMPANY, priority 2010, published 2012)
# System: L. brevis
# Test: Reduction of lactic acid bacteria in inoculated corn mash (plate count on MRS agar)
# Type: cell-based, Lactobacillus brevis
# Conditions: corn mash inoculated with L. brevis
# Experimental: In this example, corn mash was obtained from a commercial ethanol plant immediately after the liquefaction step. The mash was cooled to room temperature and then inoculated with L. brevis cultures prepared as was described in Example 1. 50 ml portions of the inoculated corn mash were treated with SCD, HP and a combination of both as follows:
# Following treatment, the samples were incubated for 2 hours in a shaking incubator. Surviving bacteria in each sample was enumerated by plating serial dilutions of each on MRS agar plates (available from Difco Laboratories, Inc., Sparks, Md.) and further incubating the plates for 48 hours at 32° C.
smiles,measurement,setting,value
"OO [HP, hydrogen peroxide]",Viable cells after 2 hours,50 ppm HP,7.48 Log CFU/g
same,Viable cells after 2 hours,100 ppm HP,5.97 Log CFU/g
